System: 624824-186-R-J2-PDC multicell spheroids, viability
Test: Anticancer human tumor 624824-186-R-J2-PDC patient-derived colon adenocarcinoma cell line growth inhibition [PI3K]
Details: for IC50: curve of first compound; for viability, T/C: stronger effect = lower value
Excerpt: Combinatorial screen of targeted agents with the PI3K inhibitors inavolisib, alpelisib, duvelisib, and copanlisib in multi-cell type tumor spheroids
A high-throughput screen of multi-cell type tumor spheroids was designed to identify active combinations of targeted small molecules and PI3K pathway inhibitors. Complex spheroids include a stromal component modeled by human endothelial cells (HUVEC) and fibroblasts modeled by human mesenchymal stem cells (MSCs). The concentration ranges selected for each drug and investigational agent were based upon clinically achievable concentrations if the clinical Cmax of the agent was known.
Compounds. The drugs and investigational agents: inavolisib (NSC800729), alpelisib (NSC765974), duvelisib (NSC772469), copanlisib (NSC816437), ipatasertib (NSC767898), afuresertib (NSC778305), talazoparib (NSC767125), sapanisertib (NSC764658), selumetinib (NSC741078), tovorafenib (DAY101, NSC766906), vemurafenib (NSC761431), ravoxertinib (NSC781343), sotorasib (NSC818433), MRTX1133 (NSC 836407), abemaciclib (NSC 768073), palbociclib (NSC758247), venetoclax (NSC 766270), SY5609 (NSC837396), enzalutamide (NSC755605), and darolutamide (NSC825331), were obtained from the National Cancer Institute (NCI) Developmental Therapeutics Program Chemical Repository. The FDA-approved anticancer drug set is available from the NCI Developmental Therapeutics Program. […] The stock solutions were prepared in dimethyl sulfoxide (DMSO, Sigma-Aldrich, St. Louis, MO, cat. D2650) at 800-fold the tested concentration and stored at -70 degrees C prior to their use. All drugs and investigational agents were tested over a range starting from a high concentration at or near the clinical Cmax and decreasing in half-log increments. If the clinical Cmax for an agent had not been determined, the highest concentration tested was 10 microM.
Cell Culture. All cells were maintained in an incubator at 37 degrees C and 5% CO2 with 95% humidity. The PDC lines were cultured according to standard operating procedures established by the NCI PDMR (https://pdmr.cancer.gov/sops/default.htm). All PDCs were thawed and cultured in Matrigel-coated flasks prepared with a working solution of 1X Ham's F-12 nutrient mix, without supplementation (Invitrogen, Waltham, MA, cat. 11765054), 100 U/mL penicillin-streptomycin (Invitrogen, cat. 15140122), and 2.5% Matrigel (Corning Inc., Corning, NY, cat. 354248) for the first three passages. The 354836-022-R-J1-PDC, 475296-252-R-J1-PDC, and 997726-040-R-J2-PDC lines were cultured in 6A media, which includes advanced DMEM/F-12 (Thermo Fisher Scientific, cat. 12634028), 10 mM HEPES (Thermo Fisher Scientific, cat. 15630080), 1X GlutaMAX supplement (Thermo Fisher Scientific, cat. 35050061), 0.1 mg/mL primocin (InvivoGen, San Diego, CA, cat. ant-pm-2), 10% defined fetal bovine serum, heat inactivated (HyClone Laboratories Inc., Logan, UT, cat. SH30070.03HI), 50% L-WRN conditioned media (ATCC, cat. CRL-3276), 1.25 mM N-Acetyl-L-cysteine (Sigma-Aldrich, cat. A9165), 10 mM nicotinamide (Sigma-Aldrich, cat. N0636), 1X B-27 supplement (Thermo Fisher Scientific, cat. 17504044), 1X N-2 supplement (Thermo Fisher Scientific, cat. 17502048), and 10 microM Y-27632 dihydrochloride (Tocris Bioscience, Bristol, United Kingdom, cat. 1254). The 624824-186-R-J2-PDC line was cultured in 6C/Colon 1B media, which includes all 6A media components plus 50 ng/mL human EGF recombinant protein (Thermo Fisher Scientific, cat. PHG0311). […]
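Further: spheroids exposed to agents for 7 days before viability read.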
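Wherever viability, T/C is given: 100% = DMSO vehicle treated spheroids.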

CNC(=O)c1ccc(N2C(=S)N(c3ccc(C#N)c(C(F)(F)F)c3)C(=O)C2(C)C)cc1F + CC(Nc1ccc2c(c1)OCCn1cc(N3C(=O)OCC3C(F)F)nc1-2)C(N)=O
IC50 (second compound 0.00316 µM): > 10 µM | IC50 (second compound 0.01 µM): > 10 µM | IC50 (second compound 0.0316 µM): > 10 µM | IC50 (second compound 0.1 µM): > 10 µM | IC50 (second compound 0.316 µM): > 10 µM | IC50 (second compound 1 µM): > 10 µM | viability, T/C (second compound 0.00316 µM, first compound 0.0316 µM): 90.2% | viability, T/C (second compound 0.00316 µM, first compound 0.1 µM): 90.7% | viability, T/C (second compound 0.00316 µM, first compound 0.316 µM): 107% | viability, T/C (second compound 0.00316 µM, first compound 1 µM): 96.3% | viability, T/C (second compound 0.00316 µM, first compound 3.16 µM): 134% | viability, T/C (second compound 0.00316 µM, first compound 10 µM): 121% | viability, T/C (second compound 0.01 µM, first compound 0.0316 µM): 88.3% | viability, T/C (second compound 0.01 µM, first compound 0.1 µM): 107% | viability, T/C (second compound 0.01 µM, first compound 0.316 µM): 88.5% | viability, T/C (second compound 0.01 µM, first compound 1 µM): 86.4% | viability, T/C (second compound 0.01 µM, first compound 3.16 µM): 124% | viability, T/C (second compound 0.01 µM, first compound 10 µM): 109% | viability, T/C (second compound 0.0316 µM, first compound 0.0316 µM): 75.5% | viability, T/C (second compound 0.0316 µM, first compound 0.1 µM): 77.3% | viability, T/C (second compound 0.0316 µM, first compound 0.316 µM): 89.5% | viability, T/C (second compound 0.0316 µM, first compound 1 µM): 80.5% | viability, T/C (second compound 0.0316 µM, first compound 3.16 µM): 102% | viability, T/C (second compound 0.0316 µM, first compound 10 µM): 98.3% | viability, T/C (second compound 0.1 µM, first compound 0.0316 µM): 72.3% | viability, T/C (second compound 0.1 µM, first compound 0.1 µM): 66% | viability, T/C (second compound 0.1 µM, first compound 0.316 µM): 84.8% | viability, T/C (second compound 0.1 µM, first compound 1 µM): 67.8% | viability, T/C (second compound 0.1 µM, first compound 3.16 µM): 78% | viability, T/C (second compound 0.1 µM, first compound 10 µM): 102% | viability, T/C (second compound 0.316 µM, first compound 0.0316 µM): 78% | viability, T/C (second compound 0.316 µM, first compound 0.1 µM): 72.3% | viability, T/C (second compound 0.316 µM, first compound 0.316 µM): 88.5% | viability, T/C (second compound 0.316 µM, first compound 1 µM): 76.9% | viability, T/C (second compound 0.316 µM, first compound 3.16 µM): 104% | viability, T/C (second compound 0.316 µM, first compound 10 µM): 98.7% | viability, T/C (second compound 1 µM, first compound 0.0316 µM): 69% | viability, T/C (second compound 1 µM, first compound 0.1 µM): 78% | viability, T/C (second compound 1 µM, first compound 0.316 µM): 89.3% | viability, T/C (second compound 1 µM, first compound 1 µM): 87.5% | viability, T/C (second compound 1 µM, first compound 3.16 µM): 95.2% | viability, T/C (second compound 1 µM, first compound 10 µM): 93.7%

Cn1cnc2c(F)c(Nc3ccc(Br)cc3Cl)c(C(=O)NOCCO)cc21 + CC(Nc1ccc2c(c1)OCCn1cc(N3C(=O)OCC3C(F)F)nc1-2)C(N)=O
IC50 (second compound 0.00316 µM): > 3 µM | IC50 (second compound 0.01 µM): > 3 µM | IC50 (second compound 0.0316 µM): > 3 µM | IC50 (second compound 0.1 µM): > 3 µM | IC50 (second compound 0.316 µM): 2.93 µM | IC50 (second compound 1 µM): 0.669 µM | viability, T/C (second compound 0.00316 µM, first compound 0.00949 µM): 89.3% | viability, T/C (second compound 0.00316 µM, first compound 0.03 µM): 76.8% | viability, T/C (second compound 0.00316 µM, first compound 0.0949 µM): 76% | viability, T/C (second compound 0.00316 µM, first compound 0.3 µM): 74.8% | viability, T/C (second compound 0.00316 µM, first compound 0.949 µM): 87.8% | viability, T/C (second compound 0.00316 µM, first compound 3 µM): 78.7% | viability, T/C (second compound 0.01 µM, first compound 0.00949 µM): 87.2% | viability, T/C (second compound 0.01 µM, first compound 0.03 µM): 71.2% | viability, T/C (second compound 0.01 µM, first compound 0.0949 µM): 81.9% | viability, T/C (second compound 0.01 µM, first compound 0.3 µM): 70.9% | viability, T/C (second compound 0.01 µM, first compound 0.949 µM): 89.6% | viability, T/C (second compound 0.01 µM, first compound 3 µM): 81.8% | viability, T/C (second compound 0.0316 µM, first compound 0.00949 µM): 72.1% | viability, T/C (second compound 0.0316 µM, first compound 0.03 µM): 66.2% | viability, T/C (second compound 0.0316 µM, first compound 0.0949 µM): 75.7% | viability, T/C (second compound 0.0316 µM, first compound 0.3 µM): 77.4% | viability, T/C (second compound 0.0316 µM, first compound 0.949 µM): 85.8% | viability, T/C (second compound 0.0316 µM, first compound 3 µM): 67.1% | viability, T/C (second compound 0.1 µM, first compound 0.00949 µM): 83.3% | viability, T/C (second compound 0.1 µM, first compound 0.03 µM): 68.2% | viability, T/C (second compound 0.1 µM, first compound 0.0949 µM): 61.1% | viability, T/C (second compound 0.1 µM, first compound 0.3 µM): 84.2% | viability, T/C (second compound 0.1 µM, first compound 0.949 µM): 67.9% | viability, T/C (second compound 0.1 µM, first compound 3 µM): 78.8% | viability, T/C (second compound 0.316 µM, first compound 0.00949 µM): 102% | viability, T/C (second compound 0.316 µM, first compound 0.03 µM): 68.1% | viability, T/C (second compound 0.316 µM, first compound 0.0949 µM): 74% | viability, T/C (second compound 0.316 µM, first compound 0.3 µM): 68.6% | viability, T/C (second compound 0.316 µM, first compound 0.949 µM): 60.2% | viability, T/C (second compound 0.316 µM, first compound 3 µM): 50.1% | viability, T/C (second compound 1 µM, first compound 0.00949 µM): 68.2% | viability, T/C (second compound 1 µM, first compound 0.03 µM): 68.8% | viability, T/C (second compound 1 µM, first compound 0.0949 µM): 66.3% | viability, T/C (second compound 1 µM, first compound 0.3 µM): 59.1% | viability, T/C (second compound 1 µM, first compound 0.949 µM): 46% | viability, T/C (second compound 1 µM, first compound 3 µM): 29.5%

Source: PubChem BioAssay AID1963975 (Molecular Pharmacology Branch, DTP, NCI, 2024)
